In publication PMC9854868, “Structure–Activity Relationship Studies of Substitutions of Cationic Amino Acid Residues on Antimicrobial Peptides” (Antibiotics, 2022):
Converted amounts (≈) assume the structure as drawn. Where two headings read alike, the source gives them in different places. Square brackets hold non-standard residues; d marks the D form. Ends that are not written are not given here. Peptide text beside a SMILES is read from it. Orn = NCCC[C@H](N)C(=O)O; Dab = NCC[C@H](N)C(=O)O; Aib = CC(C)(N)C(=O)O

Tests used:
human red blood cells = conditions: human RBCs in 172 mM Tris-HCl pH 7.6, 30 min at 37 °C, 100 to 0.39 μM, absorbance 535 nm; DMSO = 0%, M-Lycotoxin = 100%
Description: Human red blood cells (RBCs) were kindly supplied by the Japanese Red Cross Society (Tokyo, Japan) and were collected from volunteers under informed consent. The hemolysis test of peptides was performed using a previously reported method. In short, the RBCs were washed three times with 172 mM Tris-HCl buffer (pH = 7.6, wash buffer: WB), and 1.0 mL of sedimented erythrocytes was then transferred to 9.0 mL of WB. Then, 0.5 mL of this suspension was diluted in WB, and 50 µL of RBC suspension was incubated with 50 µL of each peptide for 30 min at 37 °C (final peptide conc from 100 to 0.39 μM). The suspensions were then centrifuged for 5 min at 400 rpm. The absorbance of the supernatant was measured at a wavelength of 535 nm. M-Lycotoxin [26] was used as a positive control, and the absorbances of the sample by treatment of DMSO and M-Lycotoxin were defined as 0 and 100%.

S. aureus NBRC 13276 = type: cell-based, Staphylococcus aureus; conditions: NBRC 13276, 18 h
Description: (§1) The selected bacterial strains were obtained from the Biological Resource Center, NITE (NBRC; Tokyo, Japan). Escherichia coli DH5α cells were purchased from BioDynamics Laboratory, Inc. (Tokyo, Japan). The antimicrobial activities of the peptides against […] and three Gram-negative bacteria, S. aureus NBRC 13276, E. coli DH5α, P. aeruginosa NBRC 13275, and MDRP were measured using the standard broth microdilution method, as previously described. Briefly, the bacteria were inoculated and grown overnight at 37 °C on the media for other organisms i (agar medium) and then collected with the media for other organisms ii (liquid medium), according to the Japanese Pharmacopoeia 17th Edition. Each peptide was 2-fold serially diluted with an initial concentration of 4000 μM–1.56 μM in PBS for use. Next, 10 μL of the peptide solution per well was added to each well of a sterile 96-well plate. Subsequently, 90 μL per well of inoculation with 10^4 CFUs (colony forming units) per mL was added to each well, and the plate was incubated for 18 h at 35 °C.

E. coli DH5α = type: cell-based, Escherichia coli
Description: as §1

MDRP = type: cell-based, multidrug-resistant Pseudomonas aeruginosa; conditions: 18 h
Description: as §1

P. aeruginosa NBRC 13275 = type: cell-based, Pseudomonas aeruginosa; conditions: NBRC 13275, 18 h
Description: as §1

proteinase K = proteinase K (Parengyodontium album, UniProt P06873); test: Digestion assay with proteinase K; type: in vitro ADME; conditions: proteinase K 0.002% (v/v), peptide 1 mM, 37 °C, 2–24 h, HPLC; replacing Lys with Orn
Chain of proteinase K (P06873 106-384): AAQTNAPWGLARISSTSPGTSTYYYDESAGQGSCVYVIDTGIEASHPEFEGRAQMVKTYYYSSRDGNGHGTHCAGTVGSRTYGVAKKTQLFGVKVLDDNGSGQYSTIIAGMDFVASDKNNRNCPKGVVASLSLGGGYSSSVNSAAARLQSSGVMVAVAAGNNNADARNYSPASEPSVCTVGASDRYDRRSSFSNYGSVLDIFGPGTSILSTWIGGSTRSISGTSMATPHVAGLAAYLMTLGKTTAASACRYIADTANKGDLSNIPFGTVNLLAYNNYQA
Description: (§2) The digestion assay was performed using Proteinase K of the digestive enzyme. Peptides (1 mM) were treated with 0.002% (v/v) Proteinase K and peptides were incubated at 37 °C for 2–24 h. A solution (0.1% TFA/H2O/MeCN) was added to quench the enzymatic reaction. The peptides were evaluated using analytical HPLC and a Discovery® BIO Wide Pore C18 column (25 cm × 4.6 mm, solvent A: 0.1% TFA/water, solvent B: 0.1% TFA/MeCN, flow rate: […], gradient: 10–60% gradient of solvent B over 30 min). Reproducibility was confirmed by the two independent experiments.

[1] = Digestion assay with proteinase K; type: in vitro ADME; conditions: proteinase K (isolated protease); proteinase K 0.002% (v/v), peptide 1 mM, 37 °C, 24 h, read-out HPLC, two independent experiments; read-out: remaining peptide after treatment with proteinase K
Description: as §2

Compound: CC[C@H](C)[C@H](NC(=O)CN)C(=O)N[C@@H](CCCNC(=N)N)C(=O)N[C@@H](CCCNC(=N)N)C(=O)N[C@@H](Cc1ccccc1)C(=O)N[C@@H](CC(C)C)C(=O)N[C@@H](CCCNC(=N)N)C(=O)N[C@@H](CO)C(=O)NC(C)(C)C(=O)N[C@@H](CCCNC(=N)N)C(=O)N[C@@H](CCCNC(=N)N)C(=O)N[C@@H](Cc1ccccc1)C(=O)N[C@H](C(=O)N[C@@H](CCCNC(=N)N)C(=O)NC(C)(C)C(=O)N[C@@H](Cc1ccccc1)C(=O)N[C@@H](CCCNC(=N)N)C(N)=O)C(C)C [Peptide 4] (H-GIRRFLRS[Aib]RRFVR[Aib]FR-NH2)
- Hemolysis (concentration that showed hemolytic activity greater than 50%) (human red blood cells): 6.25 µM
- MIC, Gram (+), S.a. (S. aureus NBRC 13276): 3.13 µM (≈ 6.86 µg/mL)
- MIC, Gram (–), E.Coli (E. coli DH5α; DH5α, 18 h): 3.13 µM (≈ 6.86 µg/mL)
- MIC, Gram (–), MDRP (MDRP): 12.5 µM (≈ 27.4 µg/mL)
- MIC, Gram (–), P.a. (P. aeruginosa NBRC 13275): 12.5 µM (≈ 27.4 µg/mL)

Compound: CC[C@H](C)[C@H](NC(=O)CN)C(=O)N[C@@H](CCCN)C(=O)N[C@@H](CCCN)C(=O)N[C@@H](Cc1ccccc1)C(=O)N[C@@H](CC(C)C)C(=O)N[C@@H](CCCN)C(=O)N[C@@H](CO)C(=O)NC(C)(C)C(=O)N[C@@H](CCCN)C(=O)N[C@@H](CCCN)C(=O)N[C@@H](Cc1ccccc1)C(=O)N[C@H](C(=O)N[C@@H](CCCN)C(=O)NC(C)(C)C(=O)N[C@@H](Cc1ccccc1)C(=O)N[C@@H](CCCN)C(N)=O)C(C)C [Peptide 2] (H-GI[Orn][Orn]FL[Orn]S[Aib][Orn][Orn]FV[Orn][Aib]F[Orn]-NH2)
- prolongation of half life time (t1/2) against proteinase K versus peptide 1 (proteinase K): up to approximately two times
- remaining at 24 h, 1 mM [1]: 41%
- Hemolysis (concentration that showed hemolytic activity greater than 50%) (human red blood cells): 50 µM
- MIC, Gram (+), S.a. (S. aureus NBRC 13276): 12.5 µM (≈ 23.7 µg/mL)
- MIC, Gram (–), E.Coli (E. coli DH5α; DH5α, 18 h): 3.13 µM (≈ 5.94 µg/mL)
- MIC, Gram (–), MDRP (MDRP): 3.13 µM (≈ 5.94 µg/mL)
- MIC, Gram (–), P.a. (P. aeruginosa NBRC 13275): 6.25 µM (≈ 11.9 µg/mL)

Compound: CC[C@H](C)[C@H](NC(=O)CN)C(=O)N[C@@H](CCCCN)C(=O)N[C@@H](CCCCN)C(=O)N[C@@H](Cc1ccccc1)C(=O)N[C@@H](CC(C)C)C(=O)N[C@@H](CCCCN)C(=O)N[C@@H](CO)C(=O)NC(C)(C)C(=O)N[C@@H](CCCCN)C(=O)N[C@@H](CCCCN)C(=O)N[C@@H](Cc1ccccc1)C(=O)N[C@H](C(=O)N[C@@H](CCCCN)C(=O)NC(C)(C)C(=O)N[C@@H](Cc1ccccc1)C(=O)N[C@@H](CCCCN)C(N)=O)C(C)C [Peptide 1] (H-GIKKFLKS[Aib]KKFVK[Aib]FK-NH2)
- remaining at 24 h, 1 mM [1]: ~20%
- Hemolysis (concentration that showed hemolytic activity greater than 50%) (human red blood cells): 100 µM
- MIC, Gram (+), S.a. (S. aureus NBRC 13276): 12.5 µM (≈ 24.9 µg/mL)
- MIC, Gram (–), E.Coli (E. coli DH5α; DH5α, 18 h): 3.13 µM (≈ 6.25 µg/mL)
- MIC, Gram (–), MDRP (MDRP): 3.13 µM (≈ 6.25 µg/mL)
- MIC, Gram (–), P.a. (P. aeruginosa NBRC 13275): 3.13 µM (≈ 6.25 µg/mL)

Compound: CC[C@H](C)[C@H](NC(=O)CN)C(=O)N[C@@H](CCN)C(=O)N[C@@H](CCN)C(=O)N[C@@H](Cc1ccccc1)C(=O)N[C@@H](CC(C)C)C(=O)N[C@@H](CCN)C(=O)N[C@@H](CO)C(=O)NC(C)(C)C(=O)N[C@@H](CCN)C(=O)N[C@@H](CCN)C(=O)N[C@@H](Cc1ccccc1)C(=O)N[C@H](C(=O)N[C@@H](CCN)C(=O)NC(C)(C)C(=O)N[C@@H](Cc1ccccc1)C(=O)N[C@@H](CCN)C(N)=O)C(C)C [Peptide 3] (H-GI[Dab][Dab]FL[Dab]S[Aib][Dab][Dab]FV[Dab][Aib]F[Dab]-NH2)
- Hemolysis (concentration that showed hemolytic activity greater than 50%) (human red blood cells): 25 µM
- MIC, Gram (+), S.a. (S. aureus NBRC 13276): 12.5 µM (≈ 22.5 µg/mL)
- MIC, Gram (–), E.Coli (E. coli DH5α; DH5α, 18 h): 3.13 µM (≈ 5.63 µg/mL)
- MIC, Gram (–), MDRP (MDRP): 6.25 µM (≈ 11.2 µg/mL)
- MIC, Gram (–), P.a. (P. aeruginosa NBRC 13275): 6.25 µM (≈ 11.2 µg/mL)

Compound: CC[C@H](C)[C@H](NC(=O)CN)C(=O)N[C@@H](Cc1c[nH]cn1)C(=O)N[C@@H](Cc1c[nH]cn1)C(=O)N[C@@H](Cc1ccccc1)C(=O)N[C@@H](CC(C)C)C(=O)N[C@@H](Cc1c[nH]cn1)C(=O)N[C@@H](CO)C(=O)NC(C)(C)C(=O)N[C@@H](Cc1c[nH]cn1)C(=O)N[C@@H](Cc1c[nH]cn1)C(=O)N[C@@H](Cc1ccccc1)C(=O)N[C@H](C(=O)N[C@@H](Cc1c[nH]cn1)C(=O)NC(C)(C)C(=O)N[C@@H](Cc1ccccc1)C(=O)N[C@@H](Cc1c[nH]cn1)C(N)=O)C(C)C [Peptide 5] (H-GIHHFLHS[Aib]HHFVH[Aib]FH-NH2)
- Hemolysis (concentration that showed hemolytic activity greater than 50%) (human red blood cells): >100 µM
- MIC, Gram (+), S.a. (S. aureus NBRC 13276): >50 µM
- MIC, Gram (–), E.Coli (E. coli DH5α; DH5α, 18 h): >50 µM
- MIC, Gram (–), MDRP (MDRP): >50 µM
- MIC, Gram (–), P.a. (P. aeruginosa NBRC 13275): >50 µM

Compound: GIGKFLHSAKKFGKAFVGEIMNS-NH2 [Mag2, magainin 2, reference compound]
- Hemolysis (concentration that showed hemolytic activity greater than 50%) (human red blood cells): >100 µM
- MIC, Gram (+), S.a. (S. aureus NBRC 13276): 100 µM
- MIC, Gram (–), E.Coli (E. coli DH5α; E. coli DH5α, broth microdilution, 10^4 CFU per mL, 18 h at 35 °C, final concentration 0.39 to 100 μM, lowest concentration that completely inhibited growth): 3.13 µM
- MIC, Gram (–), MDRP (MDRP): 12.5 µM
- MIC, Gram (–), P.a. (P. aeruginosa NBRC 13275): 12.5 µM
